How the values were obtained:
[1] = Stability assay of crystalline form (influential factors: high temperature, high humidity, illumination); assay type: physicochemical; conditions: for Stability at high humidity, at high temperature or under illumination (in words): related substance and water over the observation items
Procedure: The crystalline form I of the compound of formula I prepared in Example 2 and the crystalline form II of the compound of formula I prepared in Example 4, each of 500 mg, were separately placed in dry and clean containers, and evenly spread in thin layers as test samples. The samples were completely exposed to experimental conditions of influential factors (40° C., 60° C., 75% RH, 92.5% RH, high temperature and high humidity (40° C., 75% RH)). Samples were taken for analysis on day 10 and day 30. The samples were completely exposed to illumination (visible light of 1,200,000 Lux·hr, UV of 216 W·hr/m^2) at room temperature.
Chromatographic column: Agilent AdvanceBio Peptide C18 (4.6 mm×150 mm, 3.5 μm).
The water content was measured by a Mettler V20 system.
About 10 mg of the sample was dissolved with an appropriate amount of a mixed diluent of acetonitrile-water (70:30) for content assay of related substance.

HBV DNA in HepAD38 cells = experiment: In-vitro inhibitory activity against HBV DNA in HepAD38 cells; assay type: cell-based; conditions: Hepatitis B virus, 144 h, 6 days treatment, intracellular capsid HBV DNA by qPCR, read-out: EC50 (anti-HBV activity)
Procedure: (§1) A vial of HepG2.2.15 cells (Wuhan Institute of Virology) or HepAD38 cells in good condition and at logarithmic growth phase was washed once with 5 mL of PBS. 3 mL of pancreatin was added. The cells were digested at room temperature for 5 min, then 2 mL of pancreatin was discarded. The cells were further digested in a cell incubator for 10 min, and observed under a microscope (whether the cells are round in shape, and whether the cells are separated or adhered). 10 mL of complete medium was added to terminate the digestion. The cells was mixed using a pipette to obtain a single cell suspension. 10 μL of the cell suspension was loaded on a cell counter for counting, and diluted with the complete medium to adjust the cell density to 1×10^5 cells/mL. The cells were seeded on a 24-well plate (pre-coated with 50 μg/mL Collagen I solution) at 1 mL/well using a multi-channel pipette and cultured in a thermostatic CO2 incubator for 48 h.
(§2) A solution of the compound dissolved in DMSO was diluted to 10 concentrations in a 2-fold gradient using complete medium. The cells were treated with the compound for 6 days with the media containing the compound refreshed every 72 h. […] HBV DNA in the intracellular viral capsid was measured by real-time fluorescent quantitative PCR. The inhibition rate was calculated according to the Ct value, and the EC50 value was calculated by four-parameter fitting.

[2] = tested on: HBV DNA in HepG2.2.15 cells; experiment: In-vitro inhibitory activity against HBV DNA in HepG2.2.15 cells; assay type: cell-based; conditions: Hepatitis B virus, 144 h, 6 days treatment, intracellular capsid HBV DNA by qPCR, read-out: EC50 (anti-HBV activity)
Procedure: as §1, §2

[3] = Plasma protein binding assay (equilibrium dialysis), human plasma; assay type: in vitro ADME
Procedure: (§3) Preparation of plasma samples: 5 μL of test compound solution or positive control was added to 495 μL of blank plasma of various species (mouse, rat, dog, monkey and human) to obtain plasma sample solutions at plasma concentrations of 1 μM and 10 μM (in acetonitrile).
(§4) The pretreated dialysis membrane was loaded on a high-throughput equilibrium dialysis system. 100 μL of the plasma sample solution and PBS buffer were added to the two sides (sample side and buffer side) of the dialysis membrane respectively (n=3). The system was sealed with a patch and incubated at 37° C. overnight (100 rpm) to achieve dialysis equilibrium. 50 μL samples were taken from the sample side and the buffer side, and the reaction was terminated with glacial acetonitrile containing an internal standard.
(§5) Sample pretreatment: 450 μL of glacial acetonitrile containing an internal standard was added to 50 μL of the sample from the plasma side for precipitation. The mixture was vortexed for 5 min, and centrifuged (12000 rpm, 4° C.) for 10 min. 75 μL of supernatant was taken and diluted with 75 μL of ultrapure water. After being mixed well, 1 μL of the resulting sample was injected for analysis; 250 μL of glacial acetonitrile containing an internal standard was added to 50 μL of the sample from the PBS side for precipitation. The mixture was vortexed for 5 min, and centrifuged (12000 rpm, 4° C.) for 10 min. […]

[4] = Plasma protein binding assay (equilibrium dialysis), rat plasma; assay type: in vitro ADME
Procedure: as §3, §4, §5

[5] = Plasma protein binding assay (equilibrium dialysis), mouse plasma; assay type: in vitro ADME
Procedure: as §3, §4, §5

[6] = Plasma protein binding assay (equilibrium dialysis), dog plasma; assay type: in vitro ADME
Procedure: as §3, §4, §5

[7] = Plasma protein binding assay (equilibrium dialysis), monkey plasma; assay type: in vitro ADME
Procedure: as §3, §4, §5

[8] = assay type: in vitro ADME
Procedure: A final incubation system of 300 μL contained 30 μL of liver microsomes (protein concentration: 0.15 mg/mL), 30 μL of NADPH+MgCl2, 3 μL of substrate (in acetonitrile) and 237 μL of PBS. Samples were prepared in duplicate of 0.3 mL for each specie. For each tube, the 270 μL mixed solution of substrates and enzyme and the NADPH solution were separately pre-incubated at 37° C. for 5 min. The 30 μL mixed solution of NADPH+MgCl2 was added for reaction. 50 μL samples were taken at 0 min, 10 min, 30 min and 60 min, and 300 μL of glacial acetonitrile containing an internal standard was added to the samples to terminate the reaction.
Sample pretreatment: 300 μL of glacial acetonitrile containing internal standard diazepam was added to 50 μL of the incubated sample for precipitation. The mixture was vortexed for 5 min, and centrifuged (12000 rpm, 4° C.) for 10 min. 75 μL of supernatant was added to a 96-well plate and diluted with 75 μL of ultrapure water. After being mixed well, 0.5 μL of the resulting sample was injected to a LC-MS/MS system for analysis.

[9] = Pharmacokinetic (PK) study in rats; assay type: in vivo; conditions: SD rats, PO 20 mg/kg
Procedure: SD rats (B&K Universal, Shanghai) of 180-220 g were randomized into groups of 3 after 3-5 days of acclimatization and administered with the compounds at a dose of 20 mg/kg by oral gavage.
The animals to be tested (SD rats) were fasted for 12 h before administration and fed 4 h after administration, and had free access to water before, after and during the experiment.
After administration, about 0.2 mL of blood was collected from the orbit at 0 min, 15 min, 30 min, 1 h, 2 h, 4 h, 6 h, 8 h, 10 h, 24 h, 30 h and 48 h. After anticoagulation with EDTA-K2, the blood samples were transferred to a centrifuge at 4° C. within 30 min and centrifuged at 4000 rpm for 10 min to separate the plasma. All the plasma samples were collected and immediately stored at −20° C. for testing. 50 μL of the plasma sample to be tested and standard curve sample were taken, and 500 μL of acetonitrile solution containing an internal standard (20 mg/mL diazepam) was added. The reaction system was shaken for 5 min and centrifuged at 12,000 rpm for 10 min. 75 μL of supernatant was taken and diluted with 75 μL of ultrapure water.
After being mixed well, 1 μL of the resulting sample was taken for LC/MS/MS analysis.

[10] = High humidity (92.5% RH), Day 10
[11] = High humidity (92.5% RH), Day 30
[12] = High temperature (40° C.), Day 10
[13] = High temperature (40° C.), Day 30
[14] = High temperature (60° C.), Day 10
[15] = High temperature (60° C.), Day 30
[16] = High temperature and high humidity (40° C., 75% RH), Day 10
[17] = High temperature and high humidity (40° C., 75% RH), Day 30

Compound | Related substance (total impurities) ([1]; Day 0) | Water ([1]; Day 0) | Related substance (total impurities) ([1]; High humidity (75% RH), Day 10) | Water ([1]; High humidity (75% RH), Day 10) | Related substance (total impurities) ([1]; High humidity (75% RH), Day 30) | Water ([1]; High humidity (75% RH), Day 30) | Related substance (total impurities) [1, 10] | Water [1, 10] | Related substance (total impurities) [1, 11] | Water [1, 11] | Related substance (total impurities) [1, 12] | Water [1, 12] | Related substance (total impurities) [1, 13] | Water [1, 13] | Related substance (total impurities) [1, 14] | Water [1, 14] | Related substance (total impurities) [1, 15] | Water [1, 15] | Related substance (total impurities) [1, 16] | Water [1, 16] | further results
Cc1c(C(=O)Nc2ccc(F)c(C#N)c2)c(C)n(C)c1C(=O)C(=O)N[C@@H](C)C(F)(F)F [crystalline form I, (S)—N-(3-cyano-4-fluorophenyl)-1,2,4-trimethyl-5-(2-oxo-2-((1,1,1-trifluoropropan-2-yl)amino)acetyl)-1H-pyrrol-3-carboxamide] | 0.55% | 0.27% | 0.72% | 0.19% | 0.66% | 0.20% | 0.69% | 0.21% | 0.66% | 0.26% | 0.66% | 0.18% | 0.63% | 0.19% | 0.66% | 0.20% | 0.60% | 0.18% | 0.64% | 0.17% | Related substance (total impurities) [1, 17]: 0.64%; Water [1, 17]: 0.22%; Related substance (total impurities) ([1]; Illumination, Day 10): 0.63%; Water ([1]; Illumination, Day 10): 0.16%; Stability at high humidity, at high temperature or under illumination (in words) [1]: good stability
Cc1c(C(=O)Nc2ccc(F)c(C#N)c2)c(C)n(C)c1C(=O)C(=O)N[C@@H](C)C(F)(F)F [crystalline form II, (S)—N-(3-cyano-4-fluorophenyl)-1,2,4-trimethyl-5-(2-oxo-2-((1,1,1-trifluoropropan-2-yl)amino)acetyl)-1H-pyrrol-3-carboxamide] | 0.24% | 0.22% | 0.23% | 0.22% | 0.25% | 0.21% | 0.23% | 0.22% | 0.24% | 0.21% | 0.22% | 0.20% | 0.24% | 0.19% | 0.22% | 0.18% | 0.24% | 0.18% | 0.24% | 0.24% | Related substance (total impurities) [1, 17]: 0.24%; Water [1, 17]: 0.21%; Related substance (total impurities) ([1]; Illumination, Day 10): 0.27%; Water ([1]; Illumination, Day 10): 0.22%; Stability at high humidity, at high temperature or under illumination (in words) [1]: good stability
Cc1c(C(=O)Nc2ccc(F)c(C#N)c2)c(C)n(C)c1C(=O)C(=O)N[C@@H](C)C(F)(F)F [Compound of formula I, (S)—N-(3-cyano-4-fluorophenyl)-1,2,4-trimethyl-5-(2-oxo-2-((1,1,1-trifluoropropan-2-yl)amino)acetyl)-1H-pyrrol-3-carboxamide] | – | – | – | – | – | – | – | – | – | – | – | – | – | – | – | – | – | – | – | – | EC50 (HBV DNA in HepAD38 cells): ≤ 0.01 µM; EC50 [2]: ≤ 0.01 µM; Binding rate, Human ([3]; 1 μM): 94.0%; Binding rate, Human ([3]; 10 μM): 93.7%; Binding rate, Rat ([4]; 1 μM): 82.0%; Binding rate, Rat ([4]; 10 μM): 79.2%; Binding rate, Mouse ([5]; 1 μM): 75.3%; Binding rate, Mouse ([5]; 10 μM): 74.5%; Binding rate, Dog ([6]; 1 μM): 85.9%; Binding rate, Dog ([6]; 10 μM): 85.9%; Binding rate, Monkey ([7]; 1 μM): 90.7%; Binding rate, Monkey ([7]; 10 μM): 90.6%; Residual content after 60 min, Human liver microsome [8]: 78.8%; Residual content after 60 min, Mouse liver microsome [8]: 67.1%; Residual content after 60 min, Rat liver microsome [8]: 65.0%; F [9]: 57%
